Earlier results as cited in patent publication EP1694724B1, “pH SENSITIVE POLYMER AND PROCESS FOR PREPARATION THEREOF” (Council of Scientific and Industrial Research, priority 2003, dated 2005).

Conditions: humans

## CO/N=C(\C(=O)N[C@@H]1C(=O)N2C(C(=O)OC(C)OC(C)=O)=C(COC(N)=O)CS[C@H]12)c1ccco1 (stereo partly shown) [Cefuroxime axetil, cefuroxime axetil]
  bioavailability: 32-50%
